# Source: patent US7566718B2, “Amine-linked pyridyl and phenyl substituted piperazine-piperidines with CXCR3 antagonist activity” (Schering Corporation, priority 2005, dated 2009)
# Biological target: T1, human CXCR3 (N-delta 4) (Homo sapiens, UniProt P49682)
# T1 construct: CD8 leader (N); Flag tag; expressed in transfected cells; membrane preparation
# T1 sequence (P49682 5-368 limits assumed): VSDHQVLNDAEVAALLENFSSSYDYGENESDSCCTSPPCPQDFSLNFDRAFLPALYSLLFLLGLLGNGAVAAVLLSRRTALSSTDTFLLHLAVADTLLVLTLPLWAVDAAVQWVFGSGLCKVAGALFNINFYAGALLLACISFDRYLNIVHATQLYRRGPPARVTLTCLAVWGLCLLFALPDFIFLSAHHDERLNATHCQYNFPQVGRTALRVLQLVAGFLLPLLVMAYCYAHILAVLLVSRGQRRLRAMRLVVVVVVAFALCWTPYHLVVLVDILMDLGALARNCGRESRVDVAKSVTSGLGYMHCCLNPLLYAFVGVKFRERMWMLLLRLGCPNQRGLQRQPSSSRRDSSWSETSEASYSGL
# Experiment: Human CXCR3 (N-delta 4) scintillation proximity assay (SPA), [125I] IP-10 binding to Ba/F3-hCXCR3 membranes
# Settings: IC50 rating; [125I] IP-10 displacement, human CXCR3; read-out: IC50
# Source text: The inventive compounds can readily be evaluated to determine activity at the CXCR3 receptors by known methods, such as, for example, development of a human CXCR3 (N-delta 4) Binding Assay.
# The DNA encoding human CXCR3 was cloned by PCR using human genomic DNA (Promega, Madison, Wis.) as a template. The PCR primers were designed based on the published sequence of human orphan receptor GPR9 (1) with incorporated restriction sites, a Kozak consensus sequence, CD8 leader and Flag tag. The PCR product was subcloned into the mammalian expression vector pME18Sneo, a derivative of the SR-alpha expression vector (designated as pME18Sneo-hCXCR3 (N-delta 4).
# IL-3-dependent mouse pro-B cells Ba/F3 were transfected by electroporation in 0.4 ml Dulbecco's PBS containing 4×10^6 cells with 20 μg of pME18Sneo-hCXCR3 (N-delta 4) plasmid DNA. Cells were pulsed at 400 Volts, 100 OHMs, 960 μFd. The transfected cells were under selection with 1 mg/ml G418 (Life Technologies, Gaithersburg, Md.). G418-resistant Ba/F3 clones were screened for CXCR3 expression by specific binding of [^125I] IP-10 (NEN Life Science Products, Boston, Mass.).
# Ba/F3 cells expressing human CXCR3 (N-delta 4) were pelleted and resuspended in the lysis buffer containing 10 mM HEPES, pH 7.5 and Complete® protease inhibitors (1 tablet per 100 ml) (Boehringer Mannheim, Indianapolis, Ind.) at a cell density of 20×10^6 cells per ml. After 5 minute incubation on ice, cells were transferred to 4639 cell disruption bomb (Parr Instrument, Moline, Ill.) and applied with 1,500 psi of nitrogen for 30 minutes on ice. Large cellular debris was removed by centrifugation at 1,000×g. Cell membrane in the supernatant was sedimented at 100,000×g. The membrane was resuspended in the lysis buffer supplemented with 10% sucrose and stored at −80° C. Total protein concentration of the membrane was determined by BCA method from Pierce (Rockford, Ill.).
# Human CXCR3 (N-Delta 4) Scintillation Proximity Assay (SPA):
# For each assay point, 2 μg of membrane was preincubated for 1 hr with 300 μg wheat germ agglutinin (WGA) coated SPA beads (Amersham, Arlington Heights, Ill.) in the binding buffer (50 mM HEPES, 1 mM CaCl2, 5 mM MgCl2, 125 mM NaCl, 0.002% NaN3, 1.0% BSA) at room temperature. The beads were spun down, washed once, resuspended in the binding buffer and transferred to a 96-well Isoplate (Wallac, Gaithersburg, Md.). 25 pM of [^125I] IP-10 with tested compounds in a series of titration were added to start the reaction. After 3 hr reaction at room temperature, the amount of [^125I] IP-10 bound to the SPA beads was determined with a Wallac 1450 Microbeta counter.
row,SMILES,IC50
1,CC[C@H]1CN(c2ncc(NS(C)(=O)=O)cc2Cl)CCN1C1CCN([C@@H](C(=O)NC)c2ccc(Cl)cc2)CC1 [Compound 54],> 100 nM
2,CC[C@H]1CN(c2ncc(NS(=O)(=O)NC(=O)OC(C)(C)C)cc2Cl)CCN1C1CCN(Cc2ccc(Cl)cc2F)CC1 [Compound 55],> 100 nM
3,COc1ccc(CN2CCC(N3CCN(c4ncc(NS(C)(=O)=O)cc4Cl)C[C@@H]3C)CC2)c(F)c1 [Compound 56],> 100 nM
4,C[C@H]1CN(c2ncc(NS(C)(=O)=O)cc2Cl)CCN1C1CCN(CCCc2ccc(Cl)cc2)CC1 [Compound 57],> 100 nM
5,CC[C@H]1CN(c2ncc(NS(C)(=O)=O)cc2Cl)CCN1C1CCN(Cc2cccs2)CC1 [Compound 58],> 100 nM
6,CC[C@H]1CN(c2ncc(NS(C)(=O)=O)cc2Cl)CCN1C1CCN([C@@H](C(N)=O)c2ccc(Cl)cc2)CC1 [Compound 59],> 100 nM
7,CC[C@H]1CN(c2ncc(NS(C)(=O)=O)cc2Cl)CCN1C1CCN(Cc2ccsc2)CC1 [Compound 60],> 100 nM
8,CC[C@H]1CN(c2ncc(N(S(C)(=O)=O)S(C)(=O)=O)cc2Cl)CCN1C1CCN(Cc2ccc(Cl)cc2F)CC1 [Compound 61],> 100 nM
9,CC[C@H]1CN(c2ncc(NS(C)(=O)=O)cc2Cl)CCN1C1CCN(C(=O)c2ccc(Cl)cc2O)CC1 [Compound 62],> 100 nM
10,CC[C@H]1CN(c2ncc(NS(C)(=O)=O)cc2Cl)CCN1C1CCN(C(=O)c2ccc(Cl)c(Cl)c2)CC1 [Compound 63],> 100 nM
11,C[C@H]1CN(c2ncc(NS(C)(=O)=O)cc2Cl)CCN1C1CCN(Cc2ccc(C(F)(F)F)cc2F)CC1 [Compound 64],> 100 nM
12,CC[C@H]1CN(c2ncc(NS(C)(=O)=O)cc2Cl)CCN1C1CCN(Cc2ccc(Br)cc2OC)CC1 [Compound 65],> 100 nM
13,C[C@H]1CN(c2ncc(NS(C)(=O)=O)cc2Cl)CCN1C1CCN(C(=O)c2ccc(Cl)cc2)CC1 [Compound 66],> 100 nM
14,CC[C@H]1CN(c2ncc(NS(C)(=O)=O)cc2Cl)CCN1C1CCN(Cc2ccc(O)cc2)CC1 [Compound 67],> 100 nM
15,CC[C@H]1CN(c2ncc(NS(C)(=O)=O)cc2Cl)CCN1C1CCN(C(=O)c2ccc(OC(F)(F)F)cc2)CC1 [Compound 68],> 100 nM
16,CC[C@H]1CN(c2ncc(NS(C)(=O)=O)cc2Cl)CCN1C1CCN(C(=O)c2ccc(Br)s2)CC1 [Compound 69],> 100 nM
17,CC[C@H]1CN(c2ncc(Nc3c(NC4CC4)c(=O)c3=O)cc2Cl)CCN1C1CCN(Cc2ccc(Cl)cc2)CC1 [Compound 70],< 25 nM
18,CC[C@H]1CN(c2ncc(Nc3c(NC4CC4)c(=O)c3=O)cc2Cl)CCN1C1CCN([C@H](CO)c2ccc(Cl)cc2)CC1 [Compound 71],< 25 nM
19,CC[C@H]1CN(c2ncc(Nc3c(NCCO)c(=O)c3=O)cc2Cl)CCN1C1CCN(Cc2ccc(Cl)cc2C(N)=O)CC1 [Compound 72],< 25 nM
20,CC[C@H]1CN(c2ncc(Nc3c(NC4CC4)c(=O)c3=O)cc2Cl)CCN1C1CCN(Cc2ccc(Cl)cc2F)CC1 [Compound 73],< 25 nM
21,CC[C@H]1CN(c2ncc(Nc3c(NC4CC4)c(=O)c3=O)cc2Cl)CCN1C1CCN(Cc2ccc(OC(F)F)cc2)CC1 [Compound 74],< 25 nM
22,CC[C@H]1CN(c2ncc(Nc3c(NCC(F)(F)F)c(=O)c3=O)cc2Cl)CCN1C1CCN(Cc2ccc(Cl)cc2F)CC1 [Compound 75],< 25 nM
23,CC[C@H]1CN(c2ncc(Nc3c(N)c(=O)c3=O)cc2Cl)CCN1C1CCN(Cc2ccc(Cl)cc2F)CC1 [Compound 76],< 25 nM
24,CC[C@H]1CN(c2ncc(Nc3c(NC4CC4)c(=O)c3=O)cc2Cl)CCN1C1CCN(Cc2ccc(OC(F)(F)F)cc2)CC1 [Compound 77],< 25 nM
25,CC[C@H]1CN(c2ncc(Nc3c(NC4CCC4)c(=O)c3=O)cc2Cl)CCN1C1CCN(Cc2ccc(Cl)cc2)CC1 [Compound 78],< 25 nM

row,SMILES,IC50
1,CC[C@H]1CN(c2ncc(Nc3c(NC4CC4)c(=O)c3=O)cc2Cl)CCN1C1CCN(Cc2ccc(Br)cc2F)CC1 [Compound 79],< 25 nM
2,CC[C@H]1CN(c2ncc(Nc3c(NC4CC4)c(=O)c3=O)cc2Cl)CCN1C1CCN(Cc2ccc(C#N)cc2)CC1 [Compound 80],< 25 nM
3,CC[C@H]1CN(c2ncc(Nc3c(NC4CC4)c(=O)c3=O)cc2Cl)CCN1C1CCN(Cc2ccc(Cl)cc2C(N)=O)CC1 [Compound 81],< 25 nM
4,CC[C@H]1CN(c2ccc(Nc3c(NC4CC4)c(=O)c3=O)cc2Cl)CCN1C1CCN(Cc2ccc(Cl)cc2F)CC1 [Compound 82],< 25 nM
5,CC[C@H]1CN(c2ncc(Nc3c(NC4CCC4)c(=O)c3=O)cc2Cl)CCN1C1CCN(Cc2ccc(OC(F)(F)F)cc2)CC1 [Compound 83],< 25 nM
6,CC[C@H]1CN(c2ncc(Nc3c(C(C)C)c(=O)c3=O)cc2Cl)CCN1C1CCN(Cc2ccc(Cl)cc2F)CC1 [Compound 84],< 25 nM
7,CC[C@H]1CN(c2ncc(Nc3c(NCC(F)(F)F)c(=O)c3=O)cc2Cl)CCN1C1CCN(C(CO)c2ccc(Cl)cc2)CC1 (stereo partly shown) [Compound 85],< 25 nM
8,CC[C@H]1CN(c2ncc(Nc3c(C(C)C)c(=O)c3=O)cc2Cl)CCN1C1CCN(Cc2ccc(OC(F)(F)F)cc2)CC1 [Compound 86],< 25 nM
9,CC[C@H]1CN(c2ncc(Nc3c(NC4CCC4)c(=O)c3=O)cc2Cl)CCN1C1CCN(Cc2ccc(Cl)cc2F)CC1 [Compound 87],< 25 nM
10,CC[C@H]1CN(c2ncc(Nc3c(C(C)C)c(=O)c3=O)cc2Cl)CCN1C1CCN(Cc2ccc(C#N)cc2)CC1 [Compound 88],< 25 nM
11,C[C@@H]1CN(c2ncc(Nc3c(NCC(F)(F)F)c(=O)c3=O)cc2Cl)[C@@H](C)CN1C1CCN(Cc2ccc(Cl)cc2F)CC1 [Compound 89],< 25 nM
12,C[C@@H]1CN(C2CCN(Cc3ccc(Cl)cc3F)CC2)[C@@H](C)CN1c1ncc(Nc2c(NC3CC3)c(=O)c2=O)cc1Cl [Compound 90],< 25 nM
13,CC[C@H]1CN(c2ncc(Nc3c(NC4CC4)c(=O)c3=O)cc2Cl)CCN1C1CCN(Cc2ccc(Cl)cc2C(=O)OC)CC1 [Compound 91],< 25 nM
14,C[C@@H]1CN(C2CCN(Cc3ccc(Cl)cc3F)CC2)[C@@H](C)CN1c1ncc(Nc2c(NCC(F)(F)F)c(=O)c2=O)cc1Cl [Compound 92],< 25 nM
15,CC[C@H]1CN(c2ncc(Nc3c(N4CCC4)c(=O)c3=O)cc2Cl)CCN1C1CCN(Cc2ccc(Cl)cc2F)CC1 [Compound 93],< 25 nM
16,CC[C@H]1CN(c2ncc(Nc3c(N(C)C)c(=O)c3=O)cc2Cl)CCN1C1CCN(C(CO)c2ccc(Cl)cc2)CC1 (stereo partly shown) [Compound 94],< 25 nM
17,CC[C@H]1CN(c2ncc(Nc3c(NCCN(C)C)c(=O)c3=O)cc2Cl)CCN1C1CCN([C@H](CO)c2ccc(Cl)cc2)CC1 [Compound 95],< 25 nM
18,CC[C@H]1CN(c2ncc(Nc3c(N4CCOCC4)c(=O)c3=O)cc2Cl)CCN1C1CCN(Cc2ccc(Cl)cc2F)CC1 [Compound 96],< 25 nM
19,CC[C@H]1CN(c2ncc(Nc3c(NC4CC4)c(=O)c3=O)cc2Cl)CCN1C1CCN(Cc2ccc(Cl)cc2C#N)CC1 [Compound 97],< 25 nM
20,C[C@@H]1CN(c2ncc(Nc3c(NCC(F)(F)F)c(=O)c3=O)cc2Cl)[C@@H](C)CN1C1CCN(Cc2ccc(Cl)cc2)CC1 [Compound 98],< 25 nM
21,CC[C@H]1CN(c2ncc(Nc3c(NC4CC4)c(=O)c3=O)cc2Cl)CCN1C1CCN(Cc2ccc(Cl)cc2[N+](=O)[O-])CC1 [Compound 99],< 25 nM
22,C[C@@H]1CN(C2CCN(Cc3ccc(Cl)cc3F)CC2)[C@@H](C)CN1c1ncc(Nc2c(N)c(=O)c2=O)cc1Cl [Compound 100],< 25 nM
23,CC[C@H]1CN(c2ncc(Nc3c(NC4CC4)c(=O)c3=O)cc2Cl)CCN1C1CCN([C@@H](C(=O)NC)c2ccc(Cl)cc2)CC1 [Compound 101],< 25 nM
24,CC[C@H]1CN(c2ncc(Nc3c(NC4CC4)c(=O)c3=O)cc2Cl)CCN1C1CCN(C(=O)c2ccc(Cl)cc2)CC1 [Compound 102],< 25 nM
